Laboratory results: ChEMBL document CHEMBL1201862, “PubChem BioAssay data set” (2004)
Active and inactive are the calls of the source.

Experiments:
INS1 = test: beta cell apoptosis inhibitors, cytokine rescue, dose response, luminescence, retest (AID 449756); assay type: functional, cell-based; conditions: Rattus norvegicus;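 also: cell death triggered by IL-1 beta plus TNF-alpha plus IFN-gamma mixture; protective hits raise ATP signal compared with cytokine alone wells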
H4 = test: Luminescence Cell-Based Dose Response HTS to Identify Activators of 5'UTR Stem-Loop Driven Prion Protein mRNA Translation in H4 Neuroglioblastoma Cells. [Related pubchem assays: 1829 (Project Summary), 1814 (Primary HTS)]; assay type: functional; conditions: Homo sapiens
[1] = cytotoxicity toward NIH3T3 fibroblasts, dose response, counter-screen, cell-based, ATP luminescence, mouse fibroblasts (AID 2010); assay type: functional;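 also: cells exposed to compound for about 90 hours before reading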
[2] = inhibitors of intracellular T. cruzi replication, confirmation, NIH3T3 host cells, beta-gal luminescence (AID 2044); assay type: functional, cell-based;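 also: intracellular parasites grown in NIH/3T3 mouse fibroblasts as host cells; luminescent beta-galactosidase reporter signal from transgenic T. cruzi replicating inside host cells; inhibitors lower the luminescence signal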
[3] = Luminescence Cell-Based Dose Confirmation HTS to Identify Activators of 5'UTR Stem-Loop Driven Alpha-Synuclein mRNA Translation in H4 Neuroglioblastoma Cells. [Related pubchem assays: 1829 (Project Summary), 1814 (Primary HTS)]; assay type: functional
[4] = Luminescence Cell-Based Dose Response HTS to Identify Activators of Luciferase Translation or Activity in H4 […] Cells. [Related pubchem assays: 1829 (Project Summary), 1814 (Primary HTS)]; assay type: functional
[5] = microbe, parasite or virus in culture; assay type: functional; conditions: Mycobacterium tuberculosis
cells = assay type: functional
Protein skinhead-1 = target: T1, Protein skinhead-1 (Caenorhabditis elegans, UniProt P34707); assay type: functional
T1 sequence (P34707 whole entry): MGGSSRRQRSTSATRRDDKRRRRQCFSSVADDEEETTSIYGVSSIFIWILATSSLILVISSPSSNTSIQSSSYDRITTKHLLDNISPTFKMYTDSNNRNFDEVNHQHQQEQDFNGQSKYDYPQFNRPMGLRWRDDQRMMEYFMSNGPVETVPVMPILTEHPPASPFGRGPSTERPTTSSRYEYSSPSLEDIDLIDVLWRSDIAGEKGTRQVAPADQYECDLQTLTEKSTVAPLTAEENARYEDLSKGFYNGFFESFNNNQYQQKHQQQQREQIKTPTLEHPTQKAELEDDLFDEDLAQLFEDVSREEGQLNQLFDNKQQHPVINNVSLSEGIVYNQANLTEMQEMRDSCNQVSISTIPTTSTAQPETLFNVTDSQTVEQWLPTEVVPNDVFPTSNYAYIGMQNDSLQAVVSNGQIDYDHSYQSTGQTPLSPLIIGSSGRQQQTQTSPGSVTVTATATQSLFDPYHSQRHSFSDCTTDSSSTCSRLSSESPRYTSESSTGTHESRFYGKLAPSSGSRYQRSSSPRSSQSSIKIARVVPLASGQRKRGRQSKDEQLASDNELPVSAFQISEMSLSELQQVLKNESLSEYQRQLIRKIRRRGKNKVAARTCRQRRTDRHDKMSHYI

[6] = system: Streptococcus sp. 'group A'; test: growth inhibition of control SK(-) GAS strain, dose response, counter-screen for streptokinase expression inhibitor project, luminescence, kanamycin, BacTiterGlo, confirmation (AID 1900); assay type: functional, organism-based
[7] = Luminescence Cell-Based Dose Retest to Confirm Inhibitors of Cancer Stem Cells. [Related pubchem assays (depositor defined):AID2717, AID2721]; assay type: functional; conditions: Homo sapiens
Streptococcus = test: Group A Streptococcus viability loss, dose response, counter-screen for streptokinase expression inhibitor project, luminescence, BacTiterGlo (AID 1915); assay type: functional, organism-based;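 also: potency for reduction of bacterial viability or growth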
[8] = target: T2, High affinity choline transporter 1 (Homo sapiens, UniProt Q9GZV3); test: CHT inhibitors, dose response, cell-based, 5-point CRC, membrane potential dye (AID 504840); assay type: functional
T2 sequence (Q9GZV3 whole entry): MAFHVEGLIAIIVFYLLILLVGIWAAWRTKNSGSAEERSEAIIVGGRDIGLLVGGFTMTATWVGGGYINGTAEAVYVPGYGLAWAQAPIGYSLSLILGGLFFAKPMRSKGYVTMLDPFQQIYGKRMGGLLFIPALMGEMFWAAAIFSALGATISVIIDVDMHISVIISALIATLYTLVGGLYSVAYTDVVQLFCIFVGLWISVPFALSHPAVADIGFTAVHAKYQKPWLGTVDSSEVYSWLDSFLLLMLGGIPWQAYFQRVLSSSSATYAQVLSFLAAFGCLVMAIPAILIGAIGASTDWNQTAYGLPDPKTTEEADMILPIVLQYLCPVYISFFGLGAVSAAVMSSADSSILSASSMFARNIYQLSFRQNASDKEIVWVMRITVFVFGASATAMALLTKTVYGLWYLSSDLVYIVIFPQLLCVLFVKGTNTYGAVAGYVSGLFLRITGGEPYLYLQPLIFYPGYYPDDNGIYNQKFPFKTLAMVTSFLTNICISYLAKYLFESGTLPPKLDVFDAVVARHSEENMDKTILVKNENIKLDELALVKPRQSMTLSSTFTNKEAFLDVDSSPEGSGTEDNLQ

[9] = A cytotoxicity screen of small molecule inhibitors of the PhoP region in Salmonella typhi identified in the primary screen. [Related pubchem assays: 1850, 1864, 1985 ]; assay type: functional
[10] = target: T3, Polyadenylate-binding protein 1 (Homo sapiens, UniProt P11940); test: PABP1 MLLE–PAM2 interaction inhibitors, dose response, miRNA deadenylation inhibitor project, biochemical, fluorescence polarization, Cy5-PAM2 peptide, secondary (AID 602260); assay type: functional; conditions: read-out: IC50_Mean
[11] = target: T3, Polyadenylate-binding protein 1; test: PABP1 MLLE–PAM2 binding inhibitor potency, dose response, biochemical, fluorescence polarization, FITC-PAM2 peptide (AID 602259); assay type: functional; conditions: read-out: IC50_Mean
Streptokinase A = target: T4, Streptokinase A (Streptococcus pyogenes serotype M1, UniProt P10520); test: S. pyogenes streptokinase expression inhibitors, potency, dose response, plasminogen activation absorbance, OD405 (AID 1914); assay type: functional, Streptococcus pyogenes M1 GAS;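 also: secreted streptokinase activity via plasminogen activation per viability signal from cell pellet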
T4 sequence (P10520 whole entry): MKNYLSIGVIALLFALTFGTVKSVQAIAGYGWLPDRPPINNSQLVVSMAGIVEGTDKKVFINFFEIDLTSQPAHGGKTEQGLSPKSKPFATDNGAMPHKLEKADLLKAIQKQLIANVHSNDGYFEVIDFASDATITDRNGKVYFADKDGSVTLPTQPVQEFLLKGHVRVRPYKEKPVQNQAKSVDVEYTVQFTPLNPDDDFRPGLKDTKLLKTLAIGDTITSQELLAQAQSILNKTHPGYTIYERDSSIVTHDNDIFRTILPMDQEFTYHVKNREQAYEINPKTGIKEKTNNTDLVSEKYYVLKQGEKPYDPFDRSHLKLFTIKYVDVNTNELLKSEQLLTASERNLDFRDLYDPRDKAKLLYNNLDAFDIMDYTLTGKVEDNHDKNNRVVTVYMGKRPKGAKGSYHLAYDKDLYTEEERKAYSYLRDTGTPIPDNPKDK

[12] = target: T5, Heat shock factor protein 1 (Mus musculus, UniProt P38532); test: HSF1 potentiators in luciferase reporter cells, confirmation, cell-based, NIH3T3, luminescence, dose retest (AID 435004); assay type: functional;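 also: stress induced by proteasome inhibitor MG132 added 30 min after compound; luciferase reporter driven by HSF1 response element in NIH3T3 cells; actives raise luminescence as potentiators of the MG132 stress response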
T5 sequence (P38532 whole entry): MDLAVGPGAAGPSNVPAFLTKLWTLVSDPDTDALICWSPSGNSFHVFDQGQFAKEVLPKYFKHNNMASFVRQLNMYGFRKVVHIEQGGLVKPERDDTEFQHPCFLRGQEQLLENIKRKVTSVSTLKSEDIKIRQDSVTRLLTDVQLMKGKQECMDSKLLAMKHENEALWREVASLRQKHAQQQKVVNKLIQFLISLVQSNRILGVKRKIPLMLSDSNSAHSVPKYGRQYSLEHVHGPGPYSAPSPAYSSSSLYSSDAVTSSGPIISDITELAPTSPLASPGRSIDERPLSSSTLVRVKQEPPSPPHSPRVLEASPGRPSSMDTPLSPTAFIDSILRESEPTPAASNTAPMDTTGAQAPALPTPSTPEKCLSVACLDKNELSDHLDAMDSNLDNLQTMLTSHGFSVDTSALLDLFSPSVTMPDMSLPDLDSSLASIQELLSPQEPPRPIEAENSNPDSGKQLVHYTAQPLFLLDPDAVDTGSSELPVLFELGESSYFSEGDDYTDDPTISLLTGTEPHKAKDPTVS

T3 sequence (P11940 whole entry): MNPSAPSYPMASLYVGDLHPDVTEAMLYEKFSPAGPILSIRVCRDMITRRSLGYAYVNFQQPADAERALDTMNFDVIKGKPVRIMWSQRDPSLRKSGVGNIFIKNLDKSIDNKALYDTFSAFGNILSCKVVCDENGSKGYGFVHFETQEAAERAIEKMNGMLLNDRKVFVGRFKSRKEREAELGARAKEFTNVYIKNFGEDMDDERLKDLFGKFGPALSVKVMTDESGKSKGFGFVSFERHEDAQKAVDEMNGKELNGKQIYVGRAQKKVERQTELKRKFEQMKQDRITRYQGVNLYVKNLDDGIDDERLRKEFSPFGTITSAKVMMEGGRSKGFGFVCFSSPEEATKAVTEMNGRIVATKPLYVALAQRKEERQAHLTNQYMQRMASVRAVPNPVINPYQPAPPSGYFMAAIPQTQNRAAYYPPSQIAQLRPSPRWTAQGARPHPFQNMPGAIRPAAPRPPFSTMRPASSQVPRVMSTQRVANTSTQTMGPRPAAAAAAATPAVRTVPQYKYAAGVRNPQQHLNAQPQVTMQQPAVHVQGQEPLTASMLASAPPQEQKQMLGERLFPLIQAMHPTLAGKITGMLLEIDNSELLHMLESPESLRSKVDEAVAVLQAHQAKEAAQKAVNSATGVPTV

SMILES: Cc1nc(NC(=O)C23CC4CC(CC(C4)C2)C3)sc1Cc1ccc2c(c1)OCO2
- AC50 (INS1): 14.1 µM (active)
- EC50 (H4): 8.65 µM (active)
- EC50 [1]: > 60 µM (not active)
- EC50 [2]: 0.844 µM (active)
- EC50 [3]: 15.8 µM (active)
- EC50 [4]: 6.33 µM (active)

SMILES: COc1ccc(CNc2[nH]cnc3c4cc(OC)c(OC)cc4nc2-3)cc1
- CC50 [5]: > 40 µM (active)

SMILES: COC(=O)C(O)(c1ccc(NC(=S)NC(=O)c2ccccc2)cc1)C(F)(F)F (configuration not stated)
- IC50 (cells): 39.6 µM (active)

SMILES: COc1ccccc1C1CC(c2cccc(NS(C)(=O)=O)c2)=NN1S(=O)(=O)c1ccccc1 (configuration not stated)
- IC50 (Protein skinhead-1): > 100 µM (inactive)

SMILES: CN1CCN(C2=Cc3ccc(Cl)cc3Sc3ccc(F)cc32)CC1
- EC50 [6]: 7.12 µM (active)
- AC50 [7]: 6.81 µM (active)
- EC50 (Streptococcus): 7.8 µM (active)
- CC50 [5]: 33.1 µM (active)

SMILES: Brc1ccc(-c2nnc(-c3ccccc3)o2)o1
- IC50 (Protein skinhead-1): > 100 µM (inactive)

SMILES: CCN1CCCC1CNC(=O)c1ccc2c(c1)N(Cc1ccccc1F)C(=O)c1ccccc1S2(=O)=O (configuration not stated)
- IC50 [8]: 11.2 µM (active)

SMILES: N#C/C(=C(/O)c1ccco1)c1nc2ccccc2s1
- EC50 [9]: > 50 µM (active)

SMILES: CC(C)Cn1c(=O)c2c(nc3n2CCCN3CCc2ccccc2)n(C)c1=O
- IC50 [8]: 13.2 µM (active)

SMILES: CC1(C)c2ccccc2C(=O)c2ccccc21
- IC50 (Protein skinhead-1): 24 µM (active)

SMILES: CCCN1CCc2nc(S)nc(O)c2C1
- IC50 [10]: > 66 µM (inactive)
- IC50 [11]: > 66 µM (inactive)

SMILES: CC(C)(C)C(=O)Nc1scc(-c2ccc(-c3ccccc3)cc2)c1C(=O)O
- IC50 [8]: 14.5 µM (active)

SMILES: Clc1c(-c2ccccc2)nnn1-c1ccccc1
- IC50 (Protein skinhead-1): > 100 µM (inactive)

SMILES: CC1CC(C)CN(C(=O)COC(=O)c2ccc([N+](=O)[O-])o2)C1 (configuration not stated)
- IC50 (cells): 14.7 µM (active)

SMILES: Sc1nc2ccccc2c2nc(-c3ccccc3)nn12
- EC50 [6]: 5.84 µM (active)
- EC50 (Streptokinase A): > 150 µM (not active)
- EC50 (Streptococcus): > 150 µM (not active)
- CC50 [5]: 35.2 µM (active)

SMILES: NC(=O)c1ccc[n+](CC(=O)c2cccc([N+](=O)[O-])c2)c1
- EC50 [9]: > 50 µM (active)

SMILES: O=[N+]([O-])c1ccc(-c2cnc(NO)nc2)cc1
- EC50 [9]: > 50 µM (active)

SMILES: COc1cc(C(=O)NC(=S)Nc2ccc(NC(=O)c3ccco3)cc2)cc(OC)c1OC
- IC50 [10]: > 66 µM (inactive)
- EC50 [6]: 14.8 µM (active)
- IC50 [11]: > 66 µM (inactive)
- EC50 (Streptococcus): 7.42 µM (active)

SMILES: O=C(Nc1ccc(Cl)cc1)NC1CCCCNC1=O (configuration not stated)
- IC50 (Protein skinhead-1): > 100 µM (inactive)

SMILES: C[C@@]12C(=O)N(Cc3ccc(-c4ccccc4)cc3)CC(=O)N1[C@H](/C=C/c1ccccc1)[C@@H]1C(=O)N(c3ccccc3)C(=O)[C@@H]12
- IC50 (Protein skinhead-1): > 100 µM (inactive)

SMILES: Cc1cccc(C(=O)Nc2cccc(OCC(=O)O)c2)c1
- IC50 [8]: 7.59 µM (active)

SMILES: Cc1cc(C)c(Cn2c3ccccc3c3cnn(CC(=O)NCCN4CCOCC4)c(=O)c32)c(C)c1
- IC50 [8]: 15.8 µM (active)

SMILES: COc1nc(-c2ccccc2)cc(-c2ccc(OC)c(OC)c2)n1
- CC50 [5]: > 40 µM (active)

SMILES: O=S(=O)(Nc1ccc(-c2nnc3n2CCCCC3)cc1)c1ccc2nc(O)oc2c1
- EC50 [12]: > 260 µM (inactive)

SMILES: CSc1ccc(/C=N\Nc2nncn2N)cc1
- EC50 [12]: 141 µM (active)

SMILES: COc1ccc(-c2ccc(OC)c([C@H]3[C@@H]4C=CCC[C@@]4(C)C(=O)N3Cc3ccccc3)c2)cc1OC
- CC50 [5]: > 40 µM (active)

SMILES: Cc1ccc(NC(S)=NCc2cccs2)cc1
- EC50 [9]: > 50 µM (active)

SMILES: O=C1C=C(c2ccccc2)CC(/C=C/c2ccccc2)C1 (configuration not stated)
- EC50 [12]: > 260 µM (inactive)

SMILES: O=C(CCn1c(=O)c2ccccc2n(CC(=O)NCCC2=CCCCC2)c1=O)NCc1ccco1
- IC50 (Protein skinhead-1): > 100 µM (inactive)

SMILES: CCOC(=O)c1c(N2C(=O)CC(Sc3ccccc3C(=O)O)C2=O)sc2c1CCCC2 (configuration not stated)
- IC50 [10]: > 66 µM (inactive)
- IC50 [11]: > 66 µM (inactive)

SMILES: CC(=O)NCCn1c(C)cc2ccccc21
- IC50 (Protein skinhead-1): > 100 µM (inactive)

SMILES: Cc1cccc(N2CCN(C(=O)c3ccc(CNc4c(N5CCC(C)CC5)c(=O)c4=O)cc3)CC2C)c1 (configuration not stated)
- IC50 [8]: 14.5 µM (active)

SMILES: CC(c1ccccc1)(c1ccccc1)c1ccncc1
- EC50 [9]: > 50 µM (active)

SMILES: Cc1cccc(N2CCN(C(=O)CCN3C(S)=NC(C)(C)CC3C)CC2)c1C (configuration not stated)
- EC50 [9]: > 50 µM (active)

SMILES: O=C(NC(=S)Nc1ncccn1)c1ccccc1Br
- IC50 [10]: > 66 µM (inactive)
- IC50 [11]: > 66 µM (inactive)

SMILES: CC(C)Oc1ccc(C(=O)NC2=NCCS2)cc1
- IC50 [10]: > 66 µM (inactive)
- IC50 [11]: > 66 µM (inactive)

SMILES: CC(CC#CCN1CCOCC1)OCCC#N (configuration not stated)
- EC50 [12]: > 260 µM (inactive)

SMILES: O=C(N/N=C/c1cc(Cl)cc([N+](=O)[O-])c1O)C1CC1
- EC50 [9]: > 50 µM (active)

SMILES: COc1ccc(S(=O)(=O)N2CN3CCN(C3)C2)cc1
- EC50 [9]: > 50 µM (active)
